Results reported in patent publication US7501430B2 (ArQule, Inc., priority 2006, dated 2009).

biological target: T1, mutant B-RAF (Homo sapiens, UniProt P15056, V600E); assay: RAF biochemical assay (MEK-1 phosphorylation, anti-phospho MEK1/2 detection); details: @ 10 uM; read-out: Mutant B-RAF % inhibition
T1 construct: purchased Upstate (Charlottesville, Va.)
In short: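 Detection is by ELISA: after a 30 min room-temperature reaction, plate-captured GST-MEK-1 is probed with anti-phospho MEK1/2, then an AP-tagged secondary antibody with fluorescent Attophos read-out.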

T1 sequence (P15056 whole entry V600E): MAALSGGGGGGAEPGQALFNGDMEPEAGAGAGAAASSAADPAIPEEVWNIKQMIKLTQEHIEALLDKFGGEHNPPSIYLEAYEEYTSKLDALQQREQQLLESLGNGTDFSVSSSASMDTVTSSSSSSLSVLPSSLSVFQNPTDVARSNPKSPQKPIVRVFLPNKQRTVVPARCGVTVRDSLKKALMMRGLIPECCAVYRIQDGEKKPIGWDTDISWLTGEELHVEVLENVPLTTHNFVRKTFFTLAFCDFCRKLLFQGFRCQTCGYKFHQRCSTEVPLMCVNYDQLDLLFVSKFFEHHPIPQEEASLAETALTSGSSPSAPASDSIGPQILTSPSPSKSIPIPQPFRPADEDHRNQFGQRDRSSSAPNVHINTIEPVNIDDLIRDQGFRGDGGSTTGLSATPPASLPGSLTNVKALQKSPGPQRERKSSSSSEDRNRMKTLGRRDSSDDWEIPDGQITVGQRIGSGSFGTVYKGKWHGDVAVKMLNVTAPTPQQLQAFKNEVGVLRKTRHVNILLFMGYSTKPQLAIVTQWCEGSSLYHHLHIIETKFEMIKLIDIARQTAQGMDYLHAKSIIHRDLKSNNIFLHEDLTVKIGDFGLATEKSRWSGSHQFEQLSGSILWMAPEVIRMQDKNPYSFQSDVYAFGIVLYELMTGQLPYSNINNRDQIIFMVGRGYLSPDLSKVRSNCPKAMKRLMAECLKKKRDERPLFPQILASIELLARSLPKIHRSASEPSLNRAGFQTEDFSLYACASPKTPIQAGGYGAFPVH

inhibition at 10 µM	Compound
49%	Nc1c(Cl)c(Cl)nc(C(=O)N2CCC(Nc3nccc(-c4c(-c5ccc(F)cc5)nc5occn45)n3)CC2)c1Cl [Example 209, N-{1-[(4-amino-3,5,6-trichloropyridin-2-yl)carbonyl]piperidin-4-yl}-4-[6-(4-fluorophenyl)imidazo[2,1-b][1,3]oxazol-5-yl]pyrimidin-2-amine]
38%	COc1cccc(OC)c1C(=O)N1CCC(Nc2nccc(-c3c(-c4ccc(F)cc4)nc4occn34)n2)CC1 [Example 210, N-[1-(2,6-dimethoxybenzoyl)piperidin-4-yl]-4-[6-(4-fluorophenyl)imidazo[2,1-b][1,3]oxazol-5-yl]pyrimidin-2-amine]
29%	CC(=O)NCC(=O)N1CCC(Nc2nccc(-c3c(-c4ccc(F)cc4)nc4occn34)n2)CC1 [Example 211, N-{2-[4-({4-[6-(4-fluorophenyl)imidazo[2,1-b][1,3]oxazol-5-yl]pyrimidin-2-yl}amino)piperidin-1-yl]-2-oxoethyl}acetamide]
43%	CC(=O)NC(CO)C(=O)N1CCC(Nc2nccc(-c3c(-c4ccc(F)cc4)nc4occn34)n2)CC1 (stereo not drawn) [Example 212, N-[2-[4-({4-[6-(4-fluorophenyl)imidazo[2,1-b][1,3]oxazol-5-yl]pyrimidin-2-yl}amino)piperidin-1-yl]-1-(hydroxymethyl)-2-oxoethyl]acetamide]
40%	Cc1ccnc(SCC(=O)N2CCC(Nc3nccc(-c4c(-c5ccc(F)cc5)nc5occn45)n3)CC2)n1 [Example 215, 4-[6-(4-fluorophenyl)imidazo[2,1-b][1,3]oxazol-5-yl]-N-(1-{[(4-methylpyrimidin-2-yl)thio]acetyl}piperidin-4-yl)pyrimidin-2-amine]
58%	COc1cccc(-c2nc3sccn3c2-c2ccnc(NC3CCN(C(=O)Nc4ccc(N(C)C)cc4)CC3)n2)c1 [Example 216, N-[4-(dimethylamino)phenyl]-4-({4-[6-(3-methoxyphenyl)imidazo[2,1-b][1,3]thiazol-5-yl]pyrimidin-2-yl}amino)piperidine-1-carboxamide]
48%	O=S(=O)(c1ccc(F)cc1)N1CCC(Nc2nccc(-c3c(-c4ccc(F)c(F)c4)nc4sccn34)n2)CC1 [Example 217, 4-[6-(3,4-difluorophenyl)imidazo[2,1-b][1,3]thiazol-5-yl]-N-{1-[(4-fluorophenyl)sulfonyl]piperidin-4-yl}pyrimidin-2-amine]
42%	CN(C)c1ccc(C(=O)N2CCC(Nc3nccc(-c4c(-c5ccc(F)c(F)c5)nc5sccn45)n3)CC2)cc1 [Example 221, 4-[6-(3,4-difluorophenyl)imidazo[2,1-b][1,3]thiazol-5-yl]-N-{1-[4-(dimethylamino)benzoyl]piper-idin-4-yl}pyrimidin-2-amine]
45%	CN(C)c1ccc(C(=O)N2CCC(Nc3nccc(-c4c(-c5ccc(F)cc5)nc5occn45)n3)CC2)cc1 [Example 222, N-{1-[4-(dimethylamino)benzoyl]piperidin-4-yl}-4-[6-(4-fluorophenyl)imidazo[2,1-b][1,3]oxazol-5-yl]pyrimidin-2-amine]
71%	Fc1ccc(-c2nc3sccn3c2-c2ccnc(NC3CCNCC3)n2)cc1F [Example 223, 4-[6-(3,4-difluorophenyl)imidazo[2,1-b][1,3]thiazol-5-yl]-N-piperidin-4-ylpyrimidin-2-amine]
70%	Cc1cn2c(-c3ccnc(NC4CCNCC4)n3)c(-c3ccc(F)cc3)nc2s1 [Example 224, 4-[6-(4-fluorophenyl)-2-methylimidazo[2,1-b][1,3]thiazol-5-yl]-N-piperidin-4-ylpyrimidin-2-amine]
38%	Cc1cn2c(-c3ccnc(NC4CCN(C(=O)Nc5ccc(N(C)C)cc5)CC4)n3)c(-c3ccc(F)cc3)nc2s1 [Example 225, N-[4-(dimethylamino)phenyl]-4-({4-[6-(4-fluorophenyl)-2-methylimidazo[2,1-b][1,3]thiazol-5-yl]pyrimidin-2-yl}amino)piperidine-1-carboxamide]
61%	CN(C)c1ccc(NC(=O)N2CCC(Nc3nccc(-c4c(-c5ccc(F)c(F)c5)nc5sccn45)n3)CC2)cc1 [Example 226, 4-({4-[6-(3,4-difluorophenyl)imidazo[2,1-b][1,3]thiazol-5-yl]pyrimidin-2-yl}amino)-N-[4-(dimethylamino)phenyl]piper-idine-1-carboxamide]
27%	COc1ccc(Cl)cc1S(=O)(=O)N1CCC(Nc2nccc(-c3c(-c4ccc(F)cc4)nc4occn34)n2)CC1 [Example 227, N-{1-[(5-chloro-2-methoxyphenyl)sulfonyl]piper-idin-4-yl}-4-[6-(4-fluorophenyl)imidazo[2,1-b][1,3]oxazol-5-yl]pyrimidin-2-amine]

same assay, conditions: read-out: Mutant B-RAF IC50

IC50	Compound
218 nM	Cc1ccc(S(=O)(=O)N2CCC(Nc3nccc(-c4c(-c5ccc(F)cc5)nc5occn45)n3)CC2)cc1 [Example 198, 4-[6-(4-fluorophenyl)imidazo[2,1-b][1,3]oxazol-5-yl]-N-{1-[(4-methylphenyl)sulfonyl]piperidin-4-yl}pyrimidin-2-amine]
92 nM	O=S(=O)(c1ccc(Cl)cc1)N1CCC(Nc2nccc(-c3c(-c4ccc(F)cc4)nc4occn34)n2)CC1 [Example 199, N-{1-[(4-chlorophenyl)sulfonyl]piperidin-4-yl}-4-[6-(4-fluorophenyl)imidazo[2,1-b][1,3]oxazol-5-yl]pyrimidin-2-amine]
115 nM	COc1ccc(S(=O)(=O)N2CCC(Nc3nccc(-c4c(-c5ccc(F)cc5)nc5occn45)n3)CC2)cc1 [Example 200, 4-[6-(4-fluorophenyl)imidazo[2,1-b][1,3]oxazol-5-yl]-N-{1-[(4-methoxyphenyl)sulfonyl]piperidin-4-yl}pyrimidin-2-amine]
420 nM	CC(C)c1ccc(S(=O)(=O)N2CCC(Nc3nccc(-c4c(-c5ccc(F)cc5)nc5occn45)n3)CC2)cc1 [Example 201, 4-[6-(4-fluorophenyl)imidazo[2,1-b][1,3]oxazol-5-yl]-N-{1-[(4-isopropylphenyl)sulfonyl]piperidin-4-yl}pyrimidin-2-amine]
840 nM	O=S(=O)(c1cccc(C(F)(F)F)c1)N1CCC(Nc2nccc(-c3c(-c4ccc(F)cc4)nc4occn34)n2)CC1 [Example 202, 4-[6-(4-fluorophenyl)imidazo[2,1-b][1,3]oxazol-5-yl]-N-(1-{[3-(trifluoromethyl)phenyl]sulfonyl}piperidin-4-yl)pyrimidin-2-amine]
521 nM	O=S(=O)(c1ccc(OC(F)(F)F)cc1)N1CCC(Nc2nccc(-c3c(-c4ccc(F)cc4)nc4occn34)n2)CC1 [Example 203, 4-[6-(4-fluorophenyl)imidazo[2,1-b][1,3]oxazol-5-yl]-N-(1-{[4-(trifluoromethoxy)phenyl]sulfonyl}piperidin-4-yl)pyrimidin-2-amine]
541 nM	O=S(=O)(c1ccc(F)c(Cl)c1)N1CCC(Nc2nccc(-c3c(-c4ccc(F)cc4)nc4occn34)n2)CC1 [Example 204, N-{1-[(3-chloro-4-fluorophenyl)sulfonyl]piperidin-4-yl}-4-[-6-(4-fluorophenyl)imidazo[2,1-b][1,3]oxazol-5-yl]pyrimidin-2-amine]
981 nM	O=S(=O)(c1cc(Cl)cc(Cl)c1)N1CCC(Nc2nccc(-c3c(-c4ccc(F)cc4)nc4occn34)n2)CC1 [Example 205, N-{1-[(3,5-dichlorophenyl)sulfonyl]piperidin-4-yl}-4-[6-(4-fluorophenyl)imidazo[2,1-b][1,3]oxazol-5-yl]pyrimidin-2-amine]
329 nM	O=S(=O)(c1cccc(Cl)c1)N1CCC(Nc2nccc(-c3c(-c4ccc(F)cc4)nc4occn34)n2)CC1 [Example 206, N-{1-[(3-chlorophenyl)sulfonyl]piperidin-4-yl}-4-[6-(4-fluorophenyl)imidazo[2,1-b][1,3]oxazol-5-yl]pyrimidin-2-amine]
27 nM	O=S(=O)(c1cc(C(F)(F)F)cc(C(F)(F)F)c1)N1CCC(Nc2nccc(-c3c(-c4ccc(F)cc4)nc4occn34)n2)CC1 [Example 207, N-(1-{[3,5-bis(trifluoro-methyl)phenyl]sulfonyl}piperidin-4-yl)-4-[6-(4-fluorophenyl)imidazo[2,1-b][1,3]oxazol-5-yl]pyrimidin-2-amine]
2930 nM	COc1cccc(-c2nc3sccn3c2-c2ccnc(NC3CCNCC3)n2)c1 [Example 208, 4-[6-(3-methoxyphenyl)imidazo[2,1-b][1,3]thiazol-5-yl]-N-piperidin-4-ylpyrimidin-2-amine]
2040 nM	CCNC(=O)N1CCC(Nc2nccc(-c3c(-c4cccc(OC)c4)nc4sccn34)n2)CC1 [Example 213, N-ethyl-4-({4-[6-(3-methoxyphenyl)imidazo[2,1-b][1,3]thiazol-5-yl]pyrimidin-2-yl}amino)piperidine-1-carboxamide]
392 nM	COc1cccc(-c2nc3sccn3c2-c2ccnc(NC3CCN(S(=O)(=O)c4ccc(F)cc4)CC3)n2)c1 [Example 214, N-{1-[(4-fluorophenyl)sulfonyl]piperidin-4-yl}-4-[6-(3-methoxyphenyl)imidazo[2,1-b][1,3]thiazol-5-yl]pyrimidin-2-amine]
1220 nM	CCNC(=O)N1CCC(Nc2nccc(-c3c(-c4ccc(F)c(F)c4)nc4sccn34)n2)CC1 [Example 218, 4-({4-[6-(3,4-difluorophenyl)imidazo[2,1-b][1,3]thiazol-5-yl]pyrimidin-2-yl}amino)-N-ethylpiperidine-1-carboxamide]
51 nM	Cc1cn2c(-c3ccnc(NC4CCN(S(=O)(=O)c5ccc(F)cc5)CC4)n3)c(-c3ccc(F)cc3)nc2s1 [Example 219, 4-[6-(4-fluorophenyl)-2-methylimidazo[2,1-b][1,3]thiazol-5-yl]-N-{1-[(4-fluorophenyl)sulfonyl]piperidin-4-yl}pyrimidin-2-amine]
428 nM	CCNC(=O)N1CCC(Nc2nccc(-c3c(-c4ccc(F)cc4)nc4sc(C)cn34)n2)CC1 [Example 220, N-ethyl-4-({4-[6-(4-fluorophenyl)-2-methylimidazo[2,1-b][1,3]thiazol-5-yl]pyrimidin-2-yl}amino)piperidine-1-carboxamide]
